Experimental data from patent US9833497B2, “Human originated EGF domain proteins and use of the same” (CHENGDU SOURCEBIO LIMITED-LIABILITY COMPANY, priority 2013, dated 2017).

Legend:
Assay type in all cases: cell-based
E. coli BL21 = test: MIC against Gram-negative bacteria: E. coli BL21
Procedure, shortened: (§1)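 First, colonies from LB agar were grown in LB at 37° C, 185 rpm, to McFarland turbidity 0.5, then centrifuged and resuspended in fresh LB. Next, wells received 5×10^5 CFU/mL bacteria plus two-fold serially diluted EGF domain protein (triplicate). Finally, plates were shaken at 37° C and the no-growth concentration taken as MIC.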

Moraxella catarrhalis = test: MIC against Gram-negative bacteria: Moraxella catarrhalis
Procedure, shortened: as §1

Klebsiella pneumonia = test: MIC against Gram-negative bacteria: Klebsiella pneumonia
Procedure, shortened: as §1

Aeromonas hydrophila = test: MIC against Gram-negative bacteria: Aeromonas hydrophila
Procedure, shortened: as §1

Proteus vulgaris = test: MIC against Gram-negative bacteria: Proteus vulgaris
Procedure, shortened: as §1

E. coli DH5α = test: Antibacterial activity: MIC and growth curve against E. coli DH5α in 96-well plate; conditions: minimal inhibitory concentration against E. coli DH5α; 96-well plate, 5×10^5 CFU/mL, 37° C., judged after 8 h
Procedure, shortened: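 Log-phase DH5α (OD600 about 0.5, 37° C, 185 rpm in LB) was pelleted, resuspended in fresh LB and seeded at 5×10^5 CFU/mL with recombinant protein at 50, 25 and 12.5 μg/mL (two-fold series), in triplicate. Plates were shaken at 175 rpm, 37° C, and OD600 was read every 30 min. MIC was the lowest concentration with no growth.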

Proteus mirabilis = test: MIC against Gram-negative bacteria: Proteus mirabilis
Procedure, shortened: as §1

Citrobacter diversus = test: MIC against Gram-negative bacteria: Citrobacter diversus
Procedure, shortened: as §1

Pseudomonas aeruginosa = test: MIC against Gram-negative bacteria: Pseudomonas aeruginosa
Procedure, shortened: as §1

Serratia marcescens = test: MIC against Gram-negative bacteria: Serratia marcescens
Procedure, shortened: as §1

Enterobacter cloacae = test: MIC against Gram-negative bacteria: Enterobacter cloacae
Procedure, shortened: as §1

[1] = 96-well plate, 5×10^5 CFU/mL, 37° C., 10 h
[2] = E. coli BL21, 5×10^5 CFU/mL, 10 h cultivation at 37° C.
[3] = Moraxella catarrhalis, 5×10^5 CFU/mL, 10 h cultivation at 37° C.
[4] = Klebsiella pneumonia, 5×10^5 CFU/mL, 10 h cultivation at 37° C.
[5] = Aeromonas hydrophila, 5×10^5 CFU/mL, 10 h cultivation at 37° C.
[6] = Proteus vulgaris, 5×10^5 CFU/mL, 10 h cultivation at 37° C.
[7] = Proteus mirabilis, 5×10^5 CFU/mL, 10 h cultivation at 37° C.
[8] = Citrobacter diversus, 5×10^5 CFU/mL, 10 h cultivation at 37° C.
[9] = Pseudomonas aeruginosa, 5×10^5 CFU/mL, 10 h cultivation at 37° C.
[10] = Serratia marcescens, 5×10^5 CFU/mL, 10 h cultivation at 37° C.
[11] = Enterobacter cloacae, 5×10^5 CFU/mL, 10 h cultivation at 37° C.

Substance: PRT544 (CDCGARLCDELTGQCICPPRTIPPDCLLCQPQTFGCHPLVGCEE; listed as Homo sapiens)
- MIC against E. coli BL21 (E. coli BL21; [1]): 25 µg/mL
- MIC against M. catarrhalis (Moraxella catarrhalis; [1]): 12.5 µg/mL
- MIC against K. pneumonia (Klebsiella pneumonia; [1]): 25 µg/mL
- MIC against A. hydrophila (Aeromonas hydrophila; [1]): 12.5 µg/mL
- MIC against P. vulgaris (Proteus vulgaris; [1]): 12.5 µg/mL
- MIC (E. coli DH5α): 12.5 µg/mL
- MIC against P. mirabilis (Proteus mirabilis; [1]): 12.5 µg/mL
- MIC against C. diversus (Citrobacter diversus; [1]): 12.5 µg/mL
- MIC against P. aeruginosa (Pseudomonas aeruginosa; [1]): 12.5 µg/mL
- MIC against S. marcescens (Serratia marcescens; [1]): 12.5 µg/mL
- MIC against E. cloacae (Enterobacter cloacae; [1]): 12.5 µg/mL

Substance: PRT919 (NIDDCPGNNCKNGGACVDGVNTYNCRCPPEWTGQYCT; listed as Homo sapiens)
- MIC (E. coli BL21; E. coli BL21, 10 h cultivation at 37° C.): 12.5 µg/mL
- MIC (Moraxella catarrhalis; M. catarrhalis, 10 h cultivation at 37° C.): 12.5 µg/mL
- MIC (Klebsiella pneumonia; K. pneumonia, 10 h cultivation at 37° C.): 12.5 µg/mL
- MIC (Aeromonas hydrophila; A. hydrophila, 10 h cultivation at 37° C.): 50 µg/mL
- MIC (Proteus vulgaris; P. vulgaris, 10 h cultivation at 37° C.): 25 µg/mL
- MIC (E. coli DH5α): 50 µg/mL
- MIC (Proteus mirabilis; P. mirabilis, 10 h cultivation at 37° C.): 25 µg/mL
- MIC (Citrobacter diversus; C. diversus, 10 h cultivation at 37° C.): 25 µg/mL
- MIC (Pseudomonas aeruginosa; P. aeruginosa, 10 h cultivation at 37° C.): 50 µg/mL
- MIC (Serratia marcescens; S. marcescens, 10 h cultivation at 37° C.): 50 µg/mL
- MIC (Enterobacter cloacae; E. cloacae, 10 h cultivation at 37° C.): 25 µg/mL

Substance: PRT94 (DVNECNAHPCFPRVRCINTSPGFRCEACPPGYSGPTHQGVGLAFAKANKQVCT; listed as Homo sapiens)
- MIC (μg/mL) E. coli BL21 (E. coli BL21; E. coli BL21, 96-well plate, 5×10^5 CFU/mL, 37° C., 10 h): 12.5 µg/mL
- MIC (μg/mL) M. catarrhalis (Moraxella catarrhalis; Moraxella catarrhalis, 96-well plate, 5×10^5 CFU/mL, 37° C., 10 h): 25 µg/mL
- MIC (μg/mL) K. pneumonia (Klebsiella pneumonia; Klebsiella pneumonia, 96-well plate, 5×10^5 CFU/mL, 37° C., 10 h): 12.5 µg/mL
- MIC (μg/mL) A. hydrophila (Aeromonas hydrophila; Aeromonas hydrophila, 96-well plate, 5×10^5 CFU/mL, 37° C., 10 h): 12.5 µg/mL
- MIC (μg/mL) P. vulgaris (Proteus vulgaris; Proteus vulgaris, 96-well plate, 5×10^5 CFU/mL, 37° C., 10 h): 25 µg/mL
- MIC (E. coli DH5α): 12.5 µg/mL
- MIC (μg/mL) P. mirabilis (Proteus mirabilis; Proteus mirabilis, 96-well plate, 5×10^5 CFU/mL, 37° C., 10 h): 12.5 µg/mL
- MIC (μg/mL) C. diversus (Citrobacter diversus; Citrobacter diversus, 96-well plate, 5×10^5 CFU/mL, 37° C., 10 h): 50 µg/mL
- MIC (μg/mL) P. aeruginosa (Pseudomonas aeruginosa; Pseudomonas aeruginosa, 96-well plate, 5×10^5 CFU/mL, 37° C., 10 h): 12.5 µg/mL
- MIC (μg/mL) S. marcescens (Serratia marcescens; Serratia marcescens, 96-well plate, 5×10^5 CFU/mL, 37° C., 10 h): 50 µg/mL
- MIC (μg/mL) E. cloacae (Enterobacter cloacae; Enterobacter cloacae, 96-well plate, 5×10^5 CFU/mL, 37° C., 10 h): 50 µg/mL

Substance: PRT1445 (PCLNDCGPYGQCLLLRRHSYLYASCSCKAGWRGWSCT; listed as Homo sapiens)
- MIC against E. coli BL21 (E. coli BL21; [2]): 12.5 µg/mL
- MIC against M. catarrhalis (Moraxella catarrhalis; [3]): 25 µg/mL
- MIC against K. pneumonia (Klebsiella pneumonia; [4]): 50 µg/mL
- MIC against A. hydrophila (Aeromonas hydrophila; [5]): 50 µg/mL
- MIC against P. vulgaris (Proteus vulgaris; [6]): 25 µg/mL
- MIC (E. coli DH5α): 50 µg/mL
- MIC against P. mirabilis (Proteus mirabilis; [7]): 50 µg/mL
- MIC against C. diversus (Citrobacter diversus; [8]): 25 µg/mL
- MIC against P. aeruginosa (Pseudomonas aeruginosa; [9]): 50 µg/mL
- MIC against S. marcescens (Serratia marcescens; [10]): 50 µg/mL
- MIC against E. cloacae (Enterobacter cloacae; [11]): 50 µg/mL

Substance: PRT694 (DVDECRRVPPPCAPGRCENSPGSFRCVCGPGFRAGPRAAECL; listed as Homo sapiens)
- MIC E. coli BL21 (E. coli BL21; [1]): 25 µg/mL
- MIC M. catarrhalis (Moraxella catarrhalis; [1]): 25 µg/mL
- MIC K. pneumonia (Klebsiella pneumonia; [1]): 25 µg/mL
- MIC A. hydrophila (Aeromonas hydrophila; [1]): 25 µg/mL
- MIC P. vulgaris (Proteus vulgaris; [1]): 12.5 µg/mL
- MIC (E. coli DH5α): 50 µg/mL
- MIC P. mirabilis (Proteus mirabilis; [1]): 50 µg/mL
- MIC C. diversus (Citrobacter diversus; [1]): 12.5 µg/mL
- MIC P. aeruginosa (Pseudomonas aeruginosa; [1]): 50 µg/mL
- MIC S. marcescens (Serratia marcescens; [1]): 50 µg/mL
- MIC E. cloacae (Enterobacter cloacae; [1]): 50 µg/mL

Substance: PRT465 (ALDPCASGPCLNGGSCSNTQDPQSYHCSCPRAFTGKDCG; listed as Homo sapiens)
- MIC against E. coli BL21 (E. coli BL21; [1]): 12.5 µg/mL
- MIC against M. catarrhalis (Moraxella catarrhalis; [1]): 12.5 µg/mL
- MIC against K. pneumonia (Klebsiella pneumonia; [1]): 12.5 µg/mL
- MIC against A. hydrophila (Aeromonas hydrophila; [1]): 12.5 µg/mL
- MIC against P. vulgaris (Proteus vulgaris; [1]): 12.5 µg/mL
- MIC (E. coli DH5α): 50 µg/mL
- MIC against P. mirabilis (Proteus mirabilis; [1]): 50 µg/mL
- MIC against C. diversus (Citrobacter diversus; [1]): 50 µg/mL
- MIC against P. aeruginosa (Pseudomonas aeruginosa; [1]): 50 µg/mL
- MIC against S. marcescens (Serratia marcescens; [1]): 50 µg/mL
- MIC against E. cloacae (Enterobacter cloacae; [1]): 50 µg/mL

Substance: PRT1372 (GSRRCPGDCRGHGLCEDGVCVCDAGYSGEDC; listed as Homo sapiens)
- MIC against E. coli BL21 (E. coli BL21; [2]): 25 µg/mL
- MIC against M. catarrhalis (Moraxella catarrhalis; [3]): 25 µg/mL
- MIC against K. pneumonia (Klebsiella pneumonia; [4]): 25 µg/mL
- MIC against A. hydrophila (Aeromonas hydrophila; [5]): 25 µg/mL
- MIC against P. vulgaris (Proteus vulgaris; [6]): 25 µg/mL
- MIC (E. coli DH5α): 12.5 µg/mL
- MIC against P. mirabilis (Proteus mirabilis; [7]): 12.5 µg/mL
- MIC against C. diversus (Citrobacter diversus; [8]): 12.5 µg/mL
- MIC against P. aeruginosa (Pseudomonas aeruginosa; [9]): 12.5 µg/mL
- MIC against S. marcescens (Serratia marcescens; [10]): 12.5 µg/mL
- MIC against E. cloacae (Enterobacter cloacae; [11]): 12.5 µg/mL
